Here are results for two compounds from patent US4368267A, “Epoxidation of lower α-olefins” (priority 1980, dated 1983).

Assay [1] deals with Methylosinus sporium 5 (NRRL B-11,197). In words: Methane hydroxylation and alkene epoxidation by washed cell suspensions. To be noted: methane-grown washed cells, 30° C. Format: cell-based. How it is done:
The pH of the nutrient medium was adjusted to 7.0 by the addition of acid or base and 50 ml aliquots of the nutrient medium was charged into a plurality of 300 ml shake flasks. […] The isolates had been maintained on agar plates under an atmosphere of methane and air having a 1:1 v/v gas ratio which had been transferred every two weeks. The gaseous phase of the inoculated flasks was then replaced with a gas mixture comprised of methane and air having a ratio of 1:1 on a v/v basis. The inoculated flasks were sealed air tight and were incubated on a rotary shaker of orbital radius 2.5 cm at 250 rpm and at 30° C. for two days until the turbidity in the medium had developed.
(§1) The cells were harvested by centrifugation at 10,000 ×g at 4° C. for 30 minutes. The cell pellet was washed twice with a 0.15 M phosphate buffer at a pH of 7.0 (containing 0.002 M MgCl2). The washed cells were then suspended in a 0.15 M phosphate buffer at pH 7.0.
A 0.5 ml aliquot of each washed cell suspension (2 mg cells) was put into 10 ml vials at 4° C. which were sealed with a rubber cap. […] It was then incubated at 30° C. on a rotary shaker at 300 rpm. Samples of product (3 μl) were withdrawn periodically with a microsyringe and the products were analyzed by gas chromatography (ionization flame detector column).

The subject of assay [2] is Methylocystis parvus OBBP (NRRL B-11,198). The description is as above. It is filed as cell-based. To be noted: for Ability to hydroxylate methane or epoxidize C2 -C4 alkenes: methanol-grown washed cells. On the procedure: (§2) The pH of the nutrient medium was adjusted to 7.0 by the addition of acid or base and 50 ml aliquots of the nutrient medium was charged into a plurality of 300 ml shake flasks. […] The isolates had been maintained on agar plates under an atmosphere of methane and air having a 1:1 v/v gas ratio which had been transferred every two weeks. […] The inoculated flasks were sealed air tight and were incubated on a rotary shaker of orbital radius 2.5 cm at 250 rpm and at 30° C. for two days until the turbidity in the medium had developed.
as §1
(§3) A 0.5 ml aliquot of each washed cell suspension (2 mg cells) was put into 10 ml vials at 4° C. which were sealed with a rubber cap. The gaseous phase of the vials was removed with vacuum and then was replaced with a gas mixture of alkene and oxygen at a 1:1 v/v ratio. It was then incubated at 30° C. on a rotary shaker at 300 rpm. Samples of product (3 μl) were withdrawn periodically with a microsyringe and the products were analyzed by gas chromatography (ionization flame detector column).

Assay [3] relates to Methylomonas methanica S1 (NRRL B-11,199). The description is as above. Format: cell-based. To be noted: for Ability to hydroxylate methane or epoxidize C2 -C4 alkenes: methanol-grown washed cells. On the procedure: as §2, §1, §3
Assay [4] has as its system P(40), P(80), S(80) cell fractions of Methylosinus sp. (CRL-15, NRRL B-11,202). In words: Oxidation of n-alkanes and n-alkenes by cell fractions. It is filed as biochemical. To be noted: for Uninhibited rate of oxidation: no inhibitor; for NADH Oxidized / O2 Consumed / Product Formed: substrate 5.0 μmoles; for Rate of Product Formation (substrate to 1,2-epoxide or alcohol) / 100% activity, product formed (storage study) / 100% activity, product formed (pH study) / 100% activity, product formed (temperature study): P(40) particulate fraction; for 100% activity, product formed (storage study): before storage at 0°-4° C.; for 100% activity, product formed (pH study): optimum pH 7.0; for 100% activity, product formed (temperature study): optimum temperature 35° C. On the procedure:
Cells were washed twice with 25 mM potassium phosphate buffer, pH 7.0 containing 5 mM MgCl2. Cells were suspended in the same buffer. The cell suspensions at 4° C. were disintegrated by a single passage through a French Pressure cell (15,000 lb./in.^2) and centrifuged at 5000×g. for 15 min. to remove unbroken bacteria. The supernatant solution (crude extract) was then centrifuged at 40,000×g. for 30 min., yielding particulate P(40) and soluble S(40) fractions. The S(40) fraction was subsequently centrifuged at 80,000×g. for 60 min., yielding particulate P(80) and soluble S(80) fractions. The particulate fractions [P(40) and P(80)] were suspended in 25 mM potassium phosphate buffer, pH 7.0, containing 5 mM MgCl2 and homogenized at 4° C.
[…] The reaction mixtures contained in 1.0 ml: 150 mM potassium phosphate buffer, pH 7.0 containing 5 mM MgCl2, 0.6 ml; […] NADH, and cellular fraction.
Reaction mixtures were contained in 10 ml vials at 4° C. Vials were sealed with rubber caps. The gaseous phase in the vials was removed using vacuum and then was replaced with a gas mixture of methane or propylene and oxygen at a 1:1, v/v ratio. Oxidation of other gaseous n-alkanes and n-alkenes was examined as described above. For liquid substrates, 10 μl of substrate was used directly.
The products of epoxidation of n-alkenes and hydroxylation of n-alkanes were assayed by flame ionization gas chromatography using a stainless steel column (12'×1/8") packed with 10% Carbowax 20 M on 80/100 Chromosorb W and Porapak Q column. The column temperature was maintained isothermally at 120° C. The carrier gas flow rate was 30 ml/min. of helium. The various products were identified by retention time comparisons and co-chromatography with authentic standards.
Specific activities were expressed as μ moles of products formed per hour per mg. protein. Concentrations of protein in various fractions were determined by the method of Lowry et al., J. Biol. Chem. 193: 265-275 (1951).

Assay [5] deals with Methylobacter capsulatus Y (NRRL B-11,201). In words: Methane hydroxylation and propylene epoxidation by washed cell suspensions. It is filed as cell-based. To be noted: for Ability to hydroxylate methane or epoxidize C2 -C4 alkenes: methanol-grown washed cells.
Assay [6] concerns Methylosinus trichosporium OB3b (NRRL B-11,196). In words: Stoichiometry of the epoxidation of propylene by a cell-suspension. It is filed as cell-based. To be noted: 3.6 μmoles propylene; 3.1 mg protein; 3 min. How it is done: As a comparison the stoichiometry of the epoxidation of propylene by a cell-suspension of Methylosinus trichosporium OB3b (NRRL B-11,196) was determined as follows. The reaction mixture (3.0 ml.) contained 0.05 M sodium phosphate buffer, pH 7.0 and 3.6 μmoles of propylene. The reaction was initiated by the injection of 0.1 ml. of cell-suspension (3.1 mg protein). A correction was made for the endogenous consumption of oxygen. The amount of oxygen consumed during the reaction (3 min.) was determined polarographically with a Clark oxygen electrode. The propylene consumed and the propylene oxide formed was estimated by gas chromatography. The propylene consumed was 0.29 μmoles, the oxygen consumed was 0.30 μmoles and the propylene oxide formed was 0.28 μmoles.

Setting [7] is: methane-grown washed cells, 30° C.

Where “and” joins values, the source holds several entries; their conditions need not be identical. Equal entries are not always repeated.

Consider `C` [Methane], for which the “Conversion rate, methane hydroxylation (methane to methanol)” value in assay [1] was 1.1 μmole/hr/mg protein and 1.8 μmole/hr/mg protein. Further, in assay [2] (setting [7]), the “Conversion rate, methane hydroxylation” value stood at 0.7 μmole/hr/mg protein. The “Ability to hydroxylate methane or epoxidize C2 -C4 alkenes” value (“Ability” for short) in assay [2] was “did not possess the ability”. Also, in assay [3] (setting [7]), the “Conversion rate, methane hydroxylation” value is listed as 1.3 μmole/hr/mg protein. The “Ability” value in assay [3] was “did not possess the ability”. Moreover, the “Methane-Oxidizing Activity, P(40)” value in assay [4] (P(40) fraction, 30° C.) is 4.8 μmoles of product formed per h. In addition, in assay [4] (P(40) fraction), the “Uninhibited rate of oxidation” value was 4.5 μmoles per hr. per mg. of prot, the “NADH Oxidized” value came out at 4.8 µmol, the “O2 Consumed” value was determined as 4.6 µmol and the “Product Formed” value was found to be 4.2 µmol. Further, in assay [4] (P(40) fraction, substrate Propylene + Methane (1:1, v/v)), the “Propylene Oxide Produced” value turned out to be 1.8 μmoles/hr/mg. protein. Also, the “Propylene Oxide Produced” value in assay [4] (P(40) fraction, substrate methane alone) turned out to be 0 μmoles/hr/mg. protein. In assay [4] (30° C.), the “Rate of Product Formation (substrate to 1,2-epoxide or alcohol)” value is recorded as 4.8 μmoles/hr/mg of protein. In addition, in assay [4], the “100% activity, product formed (storage study)” value is listed as 4.8 μmoles per hr. per mg. of prot; the “100% activity, product formed (pH study)” value is listed as 4.8 μmoles per hour, per mg protei; the “100% activity, product formed (temperature study)” value is 5.0 μmoles per hour per mg of prot. Moreover, the “Methane-Oxidizing Activity, P(80)” value in assay [4] (P(80) fraction, 30° C.) is 4.2 μmoles of product formed per h. For the same compound, in assay [4] (S(80) fraction, 30° C.), the “Methane-Oxidizing Activity, S(80)” value is listed as 0 μmoles of product formed per h. The “Conversion rate, methane hydroxylation” value in assay [5] (setting [7]) worked out at 1.2 μmole/hr/mg protein. For the same compound, the “Ability” value in assay [5] is listed as “did not possess the ability”.
In the case of `C=CC` [Propylene], the “Conversion rate, propylene to propylene oxide” value (from here on “Conversion rate, propylene”) in assay [1] is on record as 2.0 μmole/hr/mg protein. Further, the “Conversion rate, propylene” value in assay [2] (setting [7]) worked out at 1.6 μmole/hr/mg protein. Also, the “Ability” value in assay [2] is recorded as “did not possess the ability”. Moreover, in assay [3] (setting [7]), the “Conversion rate, propylene” value came to 2.7 μmole/hr/mg protein. Also, the “Ability” value in assay [3] was “did not possess the ability”. Also, the “Propylene-Oxidizing Activity, P(40)” value in assay [4] (P(40) fraction, 30° C.) is 3.8 μmoles of product formed per h. In addition, in assay [4] (P(40) fraction), the “Uninhibited rate of oxidation” value is on record as 4.1 μmoles per hr. per mg. of prot, the “NADH Oxidized” value was 5.0 µmol, the “O2 Consumed” value stood at 4.8 µmol and the “Product Formed” value is 4.5 µmol. Further, the “Propylene Oxide Produced” value in assay [4] (P(40) fraction, substrate propylene alone) was found to be 4.3 μmoles/hr/mg. protein. The “Rate of Product Formation (substrate to 1,2-epoxide or alcohol)” value in assay [4] (30° C.) was 4.1 μmoles/hr/mg of protein. Moreover, in assay [4], the “100% activity, product formed (storage study)” value is reported as 4.1 μmoles per hr. per mg. of prot; the “100% activity, product formed (pH study)” value is 4.1 μmoles per hour, per mg protei; the “100% activity, product formed (temperature study)” value is 4.2 μmoles per hour per mg of prot. In addition, the “Propylene-Oxidizing Activity, P(80)” value in assay [4] (P(80) fraction, 30° C.) is 3.7 μmoles of product formed per h. In addition, the “Propylene-Oxidizing Activity, S(80)” value in assay [4] (S(80) fraction, 30° C.) is on record as 0 μmoles of product formed per h. In assay [6], this compound displayed a Propylene Oxide Formed of 0.28 µmol, an oxygen consumed of 0.30 µmol and a propylene consumed of 0.29 µmol. In addition, the “Ability” value in assay [5] is “did not possess the ability”.
